Test results from patent publication US10004701B2, “Methods and compositions for treating infection” (UNIVERSITY OF ROCHESTER, priority 2012, dated 2018).
Counter-ions that a name gives are not always drawn. Like-named read-outs stand apart in the source and are kept apart here.

Experiments:
Assay in all cases: AK assay 384-well format, Prestwick library screening
[1] = system: S. aureus strain USA300-0114; type: cell-based, Staphylococcus aureus; details: for fold induction at 50 µM: Staphylococcus aureus, USA300, 3 h
[2] = system: A. baumannii strain 98-37-09; type: cell-based, Acinetobacter baumannii; details: for fold induction at 50 µM: Acinetobacter baumannii, 983709, 3 h
E. faecium = type: cell-based, Enterococcus faecium; details: for fold induction at 50 µM: Enterococcus faecium, 3 h
E. coli = type: cell-based, Escherichia coli; details: for fold induction at 50 µM: Escherichia coli, 3 h
P. aeruginosa = type: cell-based, Pseudomonas aeruginosa; details: for fold induction at 50 µM: Pseudomonas aeruginosa, 3 h
E. cloacae = type: cell-based, Enterobacter cloacae; details: for fold induction at 50 µM: Enterobacter cloacae, 3 h
K. pneumoniae = type: cell-based, Klebsiella pneumoniae; details: for fold induction at 50 µM: Klebsiella pneumoniae, 3 h
[3] = 50 μM final drug concentration, 384-well format, cutoff for positive-scoring molecules 3-fold increase, read-out: AK-based Prestwick Library Screening Results, S. aureus (increase in extracellular AK activity)
[4] = 50 μM final drug concentration, 384-well format, cutoff for positive-scoring molecules 3-fold increase, read-out: AK-based Prestwick Library Screening Results, A. baumannii (increase in extracellular AK activity)
[5] = 50 μM final drug concentration, 384-well format, cutoff for positive-scoring molecules 3-fold increase, read-out: AK-based Prestwick Library Screening Results, E. faecium (increase in extracellular AK activity)
[6] = 50 μM final drug concentration, 384-well format, cutoff for positive-scoring molecules 3-fold increase, read-out: AK-based Prestwick Library Screening Results, E. coli (increase in extracellular AK activity)
[7] = 50 μM final drug concentration, 384-well format, cutoff for positive-scoring molecules 3-fold increase, read-out: AK-based Prestwick Library Screening Results, P. aeruginosa (increase in extracellular AK activity)
[8] = 50 μM final drug concentration, 384-well format, cutoff for positive-scoring molecules 3-fold increase, read-out: AK-based Prestwick Library Screening Results, E. cloacae (increase in extracellular AK activity)
[9] = 50 μM final drug concentration, 384-well format, cutoff for positive-scoring molecules 3-fold increase, read-out: AK-based Prestwick Library Screening Results, K. pneumoniae (increase in extracellular AK activity)

O=C(O)CNC(=O)C(CS)Cc1ccccc1 (centres unmarked) [Thiorphan]
fold induction at 50 µM ([1]; read-out: AK-based Prestwick Library Screening Results, S. aureus (fold increase in extracellular AK activity)): 1.3 | fold induction at 50 µM ([2]; read-out: AK-based Prestwick Library Screening Results, A. baumannii (fold increase in extracellular AK activity)): 1.2 | fold induction at 50 µM (E. faecium; read-out: AK-based Prestwick Library Screening Results, E. faecium (fold increase in extracellular AK activity)): 1 | fold induction at 50 µM (E. coli; read-out: AK-based Prestwick Library Screening Results, E. coli (fold increase in extracellular AK activity)): 1.2 | fold induction at 50 µM (P. aeruginosa; read-out: AK-based Prestwick Library Screening Results, P. aeruginosa (fold increase in extracellular AK activity)): 1.2 | fold induction at 50 µM (E. cloacae; read-out: AK-based Prestwick Library Screening Results, E. cloacae (fold increase in extracellular AK activity)): 1.5 | fold induction at 50 µM (K. pneumoniae; read-out: AK-based Prestwick Library Screening Results, K. pneumoniae (fold increase in extracellular AK activity)): 1.3

COc1cc(N)c(Cl)cc1C(=O)NC1CCN(CCCOc2ccc(F)cc2)CC1OC (centres unmarked) [Cisapride]
fold induction at 50 µM ([1]; planktonic S. aureus, 50 μM final drug concentration, cutoff for positive-scoring molecules 3-fold increase, read-out: AK-based Prestwick Library Screening Results, S. aureus (increase in extracellular AK activity)): 0.6 | fold induction at 50 µM ([2]; planktonic A. baumannii, 50 μM final drug concentration, cutoff for positive-scoring molecules 3-fold increase, read-out: AK-based Prestwick Library Screening Results, A. baumannii (increase in extracellular AK activity)): 1.1 | fold induction at 50 µM (E. faecium; planktonic E. faecium, 50 μM final drug concentration, cutoff for positive-scoring molecules 3-fold increase, read-out: AK-based Prestwick Library Screening Results, E. faecium (increase in extracellular AK activity)): 0.9 | fold induction at 50 µM (E. coli; planktonic E. coli, 50 μM final drug concentration, cutoff for positive-scoring molecules 3-fold increase, read-out: AK-based Prestwick Library Screening Results, E. coli (increase in extracellular AK activity)): 0.9 | fold induction at 50 µM (P. aeruginosa; planktonic P. aeruginosa, 50 μM final drug concentration, cutoff for positive-scoring molecules 3-fold increase, read-out: AK-based Prestwick Library Screening Results, P. aeruginosa (increase in extracellular AK activity)): 0.9 | fold induction at 50 µM (E. cloacae; planktonic E. cloacae, 50 μM final drug concentration, cutoff for positive-scoring molecules 3-fold increase, read-out: AK-based Prestwick Library Screening Results, E. cloacae (increase in extracellular AK activity)): 0.9 | fold induction at 50 µM (K. pneumoniae; planktonic K. pneumoniae, 50 μM final drug concentration, cutoff for positive-scoring molecules 3-fold increase, read-out: AK-based Prestwick Library Screening Results, K. pneumoniae (increase in extracellular AK activity)): 0.7

Cc1ccnc(NS(=O)(=O)c2ccc(N)cc2)n1 [Sulfamerazine]
fold induction at 50 µM ([1]; 50 μM final drug concentration, cutoff for positive-scoring molecules 3-fold increase, read-out: AK-based Prestwick Library Screening Results, S. aureus (fold increase in extracellular AK activity)): 0.9 | fold induction at 50 µM ([2]; 50 μM final drug concentration, cutoff for positive-scoring molecules 3-fold increase, read-out: AK-based Prestwick Library Screening Results, A. baumannii (fold increase in extracellular AK activity)): 2.1 | fold induction at 50 µM (E. faecium; 50 μM final drug concentration, cutoff for positive-scoring molecules 3-fold increase, read-out: AK-based Prestwick Library Screening Results, E. faecium (fold increase in extracellular AK activity)): 1 | fold induction at 50 µM (E. coli; 50 μM final drug concentration, cutoff for positive-scoring molecules 3-fold increase, read-out: AK-based Prestwick Library Screening Results, E. coli (fold increase in extracellular AK activity)): 1.1 | fold induction at 50 µM (P. aeruginosa; 50 μM final drug concentration, cutoff for positive-scoring molecules 3-fold increase, read-out: AK-based Prestwick Library Screening Results, P. aeruginosa (fold increase in extracellular AK activity)): 1 | fold induction at 50 µM (E. cloacae; 50 μM final drug concentration, cutoff for positive-scoring molecules 3-fold increase, read-out: AK-based Prestwick Library Screening Results, E. cloacae (fold increase in extracellular AK activity)): 1.9 | fold induction at 50 µM (K. pneumoniae; 50 μM final drug concentration, cutoff for positive-scoring molecules 3-fold increase, read-out: AK-based Prestwick Library Screening Results, K. pneumoniae (fold increase in extracellular AK activity)): 1

Nc1cc(N2CCCCC2)nc(N)[n+]1[O-] [Minoxidil]
fold induction at 50 µM [1, 3]: 0.7 | fold induction at 50 µM [2, 4]: 0.8 | fold induction at 50 µM (E. faecium; [5]): 1 | fold induction at 50 µM (E. coli; [6]): 0.6 | fold induction at 50 µM (P. aeruginosa; [7]): 0.6 | fold induction at 50 µM (E. cloacae; [8]): 0.7 | fold induction at 50 µM (K. pneumoniae; [9]): 0.6

N=C(N)N/N=C/c1c(Cl)cccc1Cl [Guanabenz acetate]
fold induction at 50 µM [1, 3]: 0.5 | fold induction at 50 µM [2, 4]: 0.8 | fold induction at 50 µM (E. faecium; [5]): 1 | fold induction at 50 µM (E. coli; [6]): 0.7 | fold induction at 50 µM (P. aeruginosa; [7]): 0.6 | fold induction at 50 µM (E. cloacae; [8]): 0.7 | fold induction at 50 µM (K. pneumoniae; [9]): 0.4

c1cncc(C2=NCCC2)c1 [Myosmine]
fold induction at 50 µM ([1]; 50 μM final drug concentration, planktonic, […], read-out: AK-based Prestwick Library Screening Results, S. aureus (fold increase in extracellular AK activity)): 0.4 | fold induction at 50 µM ([2]; 50 μM final drug concentration, planktonic, […], read-out: AK-based Prestwick Library Screening Results, A. baumannii (fold increase in extracellular AK activity)): 0.5 | fold induction at 50 µM (E. faecium; 50 μM final drug concentration, planktonic, […], read-out: AK-based Prestwick Library Screening Results, E. faecium (fold increase in extracellular AK activity)): 0.9 | fold induction at 50 µM (E. coli; 50 μM final drug concentration, planktonic, […], read-out: AK-based Prestwick Library Screening Results, E. coli (fold increase in extracellular AK activity)): 0.5 | fold induction at 50 µM (P. aeruginosa; 50 μM final drug concentration, planktonic, […], read-out: AK-based Prestwick Library Screening Results, P. aeruginosa (fold increase in extracellular AK activity)): 0.4 | fold induction at 50 µM (E. cloacae; 50 μM final drug concentration, planktonic, […], read-out: AK-based Prestwick Library Screening Results, E. cloacae (fold increase in extracellular AK activity)): 0.4 | fold induction at 50 µM (K. pneumoniae; 50 μM final drug concentration, planktonic, […], read-out: AK-based Prestwick Library Screening Results, K. pneumoniae (fold increase in extracellular AK activity)): 0.5

CN1CCC2(C)c3cc(O)ccc3N(C)C12.O=C(O)/C=C/C(=O)O (single isomer, unassigned; (-)) [(−)-Eseroline fumarate salt]
AK-based Prestwick library screening result, S. aureus (fold increase in extracellular AK activity) ([1]; planktonic S. aureus, 50 μM final drug concentration, […]): 0.9 | AK-based Prestwick library screening result, A. baumannii (fold increase in extracellular AK activity) ([2]; planktonic A. baumannii, 50 μM final drug concentration, […]): 0.9 | AK-based Prestwick library screening result, E. faecium (fold increase in extracellular AK activity) (E. faecium; planktonic E. faecium, 50 μM final drug concentration, […]): 1.1 | AK-based Prestwick library screening result, E. coli (fold increase in extracellular AK activity) (E. coli; planktonic E. coli, 50 μM final drug concentration, […]): 1.0 | AK-based Prestwick library screening result, P. aeruginosa (fold increase in extracellular AK activity) (P. aeruginosa; planktonic P. aeruginosa, 50 μM final drug concentration, […]): 0.8 | AK-based Prestwick library screening result, E. cloacae (fold increase in extracellular AK activity) (E. cloacae; planktonic E. cloacae, 50 μM final drug concentration, […]): 1.4 | AK-based Prestwick library screening result, K. pneumoniae (fold increase in extracellular AK activity) (K. pneumoniae; planktonic K. pneumoniae, 50 μM final drug concentration, […]): 0.9

OCCOCCN1CCN(C(c2ccccc2)c2ccc(Cl)cc2)CC1 (centres unmarked) [Hydroxyzine dihydrochloride]
fold induction at 50 µM ([1]; planktonic S. aureus, 50 μM final drug concentration, 384-well, cutoff for positive-scoring molecules 3-fold increase, read-out: AK-based Prestwick Library Screening Results: S. aureus (increase in extracellular AK activity)): 0.9 | fold induction at 50 µM ([2]; planktonic A. baumannii, 50 μM final drug concentration, 384-well, cutoff for positive-scoring molecules 3-fold increase, read-out: AK-based Prestwick Library Screening Results: A. baumannii (increase in extracellular AK activity)): 1 | fold induction at 50 µM (E. faecium; planktonic E. faecium, 50 μM final drug concentration, 384-well, cutoff for positive-scoring molecules 3-fold increase, read-out: AK-based Prestwick Library Screening Results: E. faecium (increase in extracellular AK activity)): 0.9 | fold induction at 50 µM (E. coli; planktonic E. coli, 50 μM final drug concentration, 384-well, cutoff for positive-scoring molecules 3-fold increase, read-out: AK-based Prestwick Library Screening Results: E. coli (increase in extracellular AK activity)): 1 | fold induction at 50 µM (P. aeruginosa; planktonic P. aeruginosa, 50 μM final drug concentration, 384-well, cutoff for positive-scoring molecules 3-fold increase, read-out: AK-based Prestwick Library Screening Results: P. aeruginosa (increase in extracellular AK activity)): 1 | fold induction at 50 µM (E. cloacae; planktonic E. cloacae, 50 μM final drug concentration, 384-well, cutoff for positive-scoring molecules 3-fold increase, read-out: AK-based Prestwick Library Screening Results: E. cloacae (increase in extracellular AK activity)): 1.6 | fold induction at 50 µM (K. pneumoniae; planktonic K. pneumoniae, 50 μM final drug concentration, 384-well, cutoff for positive-scoring molecules 3-fold increase, read-out: AK-based Prestwick Library Screening Results: K. pneumoniae (increase in extracellular AK activity)): 0.8
